Results published in patent US20240342167A1, “INHIBITORS OF PORCINE REPRODUCTIVE AND RESPIRATORY SYNDROME VIRUS” (University of Connecticut, priority 2023, published 2024).
“Also recorded” adds a separate entry of the source.

Tests used:
GFP-fusion CD163-SRCR2 = target: T1, GFP-fusion CD163-SRCR2 (Sus scrofa, UniProt Q2VL90); assay: Microscale thermophoresis (MST), GFP-SRCR2; type: binding, porcine
T1 construct: The purified GFP, GFP-fused SRCR2 or SRCR5 proteins were mixed with serially diluted compounds; made in house; host or cells: Escherichia coli BL21 (DE3)
T1 sequence (Q2VL90 158-258 limits assumed): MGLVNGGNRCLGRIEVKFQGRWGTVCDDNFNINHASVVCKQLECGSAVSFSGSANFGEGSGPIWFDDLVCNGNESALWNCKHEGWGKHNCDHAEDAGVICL
Description: (§1) The recombinant pET28b-GFP-SRCR2/SRCR5 constructs were transformed into Escherichia coli strain BL21 (DE3) (New England Biolabs, MA, USA). The transformed clones were cultured at 37° C. in LB broth with […] kanamycin, induced by adding 1 mM isopropyl β-D-1-thiogalactopyranoside at optical density of 0.6-0.8, and then incubated at 37° C. for 3 h. For protein purification, cells were pelleted and resuspended in xTractor Buffer containing DNAse I, lysozyme solution, and Protease Inhibitor Cocktail (Takara Bio USA, Inc., CA). The suspension was sonicated and centrifuged. The supernatant was incubated with equilibrated TALON Metal Affinity Resin (Takara Bio USA, Inc., CA, USA) and then were eluted from resin with the elution buffer (pH 7.0, 150 mM imidazole, 50 mM NaH2PO4, and 300 mM NaCl). The eluted proteins were concentrated and with buffer exchanged to phosphate-buffered saline (pH 7.4) containing 0.05% Tween-20 (PBST) using Protein Concentrator PES, 10 kD MWCO (Pierce Biotechnology, PA, USA).
(§2) The purified GFP, GFP-fused SRCR2 or SRCR5 proteins were mixed with serially diluted compounds. The mixtures were loaded to capillaries and the affinity was measured by Monolith NT.115 (NanoTemper Technologies, Inc., CA, USA) at corresponding MST power with the blue channel.

GFP-fusion CD163-SRCR5 = target: T2, GFP-fusion CD163-SRCR5 (Sus scrofa, UniProt Q2VL90); assay: Microscale thermophoresis (MST), GFP-SRCR5; type: binding, porcine; conditions: read-out: dissociation constant (Kd)
T2 construct: The purified GFP, GFP-fused SRCR2 or SRCR5 proteins were mixed with serially diluted compounds; made in house; host or cells: Escherichia coli BL21 (DE3)
T2 sequence (Q2VL90 477-577 limits assumed): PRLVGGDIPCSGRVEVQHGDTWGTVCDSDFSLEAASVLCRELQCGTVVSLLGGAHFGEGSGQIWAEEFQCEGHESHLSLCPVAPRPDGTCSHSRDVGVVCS
Description: as §1, §2

[1] = target: T3, PPI between PRRSV glycoprotein GP2a and CD163-SRCR5 (Sus scrofa, UniProt Q2VL90); assay: BiFC assay GP2a/SRCR5; type: cell-based, porcine CD163; PRRSV VR2332; conditions: for Average GP2a (relative fluorescence intensity, SRCR5/GP2a BiFC): 5 μM, HEK293T, 24 h after transfection, relative to NC (DMSO) = 1.00, n=3, 5 µM
T3 construct: SRCR5 domain of porcine CD163 receptor was amplified from cDNA of pig cells; expressed in transfected cells; host or cells: HEK293T
T3 sequence (Q2VL90 477-577): as the sequence (Q2VL90 477-577 limits assumed) above
Description: (§3) HEK293T cells were cultivated in 6-well plates in FP medium and transfected with 1 μg XpBiFC-VN155 (I152L)-SRCR5 and 1 μg pBiFC-VC155-GP2/GP4 using Fugene6. After 4 h, cells were digested with 0.05% Typsin-EDTA (ThermoFisher Scientific, MA, USA)) and passaged to 48-well plates which were coated with EmbryoMax 0.1% Gelatin Solution (Sigma-Aldrich, MO, USA) and preloaded with 5 μM B7 analogues. Fluorescence images were taken at 24 h after transfection and fluorescence intensity was measured by image J.

GFP [2] = assay: Microscale thermophoresis (MST), GFP; type: binding
Description: as §1, §2

[3] = target: T4, PPI between PRRSV GP4 and CD163-SRCR5 domain (Sus scrofa, UniProt Q2VL90); assay: BiFC assay GP4/SRCR5; type: cell-based, porcine CD163; PRRSV VR2332; conditions: for Average GP4 (relative fluorescence intensity, SRCR5/GP4 BiFC): 5 μM, HEK293T, 24 h after transfection, relative to NC (DMSO), n=3, 5 µM
T4 construct: SRCR5 domain of porcine CD163 receptor was amplified from cDNA of pig cells; expressed in transfected cells; host or cells: HEK293T
T4 sequence (Q2VL90 477-577): as the sequence (Q2VL90 477-577 limits assumed) above
Description: as §3

GFP [4] = target: T5, GFP; assay: Microscale thermophoresis (MST) assay: association of B7 with purified GFP (control protein); type: binding; conditions: Monolith NT.115, blue channel, GFP alone (control), values represent Mean, N=3
T5 construct: made in house
Description: Values represent Mean, N=3.
as §1
The purified GFP, GFP-fused SRCR2 or SRCR5 proteins were mixed with serially diluted compounds. The mixtures were loaded to capillaries and the affinity was measured by Monolith NT.115 (NanoTemper Technologies, Inc., CA, USA) at corresponding MST power with the blue channel. […]

Row | Structure (SMILES) | association with GFP-SRCR2 (in words) (GFP-fusion CD163-SRCR2) | Kd (GFP-fusion CD163-SRCR5) | Average GP2a (relative fluorescence intensity, SRCR5/GP2a BiFC) ([1]; listed as H5, 1440 min) | Average GP2a (relative fluorescence intensity, SRCR5/GP2a BiFC) ([1]; listed as PC, 1440 min) | inhibition of the PPI between PRRSV GP2a and CD163 SRCR5 (in words) ([1]; positive control) | association with GFP (in words) (GFP [2]) | Average GP4 (relative fluorescence intensity, SRCR5/GP4 BiFC) ([3]; listed as H5, 1440 min) | Average GP4 (relative fluorescence intensity, SRCR5/GP4 BiFC) ([3]; listed as PC, 1440 min) | inhibition at 5 µM ([3]; HEK-293T, read-out: reduction of the YFP fluorescence signal compared with NC (inhibition in GP4/SRCR5 BiFC)) | Kd (GFP [4])
1 | Cc1cc(F)ccc1S(=O)(=O)Nc1nc2ccccc2nc1Nc1cccc(S(=O)(=O)N2CCOCC2)c1 [B7] | little or no association; also recorded: did not interact | 32 µM | 0.15 | 0.02 | significantly inhibited | little or no association | 0.06 | 0.24 | > 70% | 
2 | Cc1cc(F)ccc1S(=O)(=O)Nc1nc2ccccc2nc1Nc1cccc(S(=O)(=O)N2CCOCC2)c1 [Compound B7] |  |  |  |  |  |  |  |  |  | 2110 µM
